Measured values from patent US9320736B2, “Zinc chelating agents for depleting XIAP and sensitizing tumor cells to apoptosis” (Institute for Cancer Research, priority 2012, dated 2016).
Entries after “also recorded” stand apart in the source; their conditions may differ.

Tests used:
[1] = test system: cIAP1, cIAP2 and surviving; test: Expression of other zinc-containing IAP family members in TPEN-treated cells; assay type: cell-based
Excerpt: (§1) The inhibition of XIAP expression is selective, as TPEN has no effect on the expression levels of other zinc-containing members of IAP family, i.e., cIAP1, cIAP2 and surviving. As well, the XIAP mRNA level is not reduced in TPEN-treated cells. Therefore, zinc chelation by TPEN induces depletion of XIAP specifically at the protein level. […] Importantly, the sensitization to therapeutic agents is specific to malignant but not to benign cells. This cytotoxic specificity for malignant cells is consistent with experiments showing that XIAP is preferentially degraded in malignant but not in benign cells upon zinc chelation and stems from blunted regulation of zinc uptake transporters upon carcinogenesis.

[2] = test system: XIAP mRNA; test: XIAP mRNA level in TPEN-treated cells; assay type: cell-based
Excerpt: as §1

[3] = test system: XIAP; test: XIAP protein levels in xenograft animal model of human prostate cancer; assay type: in vivo
Excerpt: as §1

[4] = test system: malignant cells; test: Potentiation of therapeutic agents by TPEN in malignant cells; assay type: cell-based; details: specific to malignant, not benign cells
Excerpt: as §1

[5] = test system: XIAP; details: human prostate cancer cells; Makhov et al. 2008; cited from earlier work
[6] = test system: XIAP; test: XIAP depletion in PC-3 cells by Western blot / immunoblotting; assay type: cell-based, human; details: for XIAP depletion (Western blot): chelator 50 μM, 4 hours, FIG. 3/4; for depletion of XIAP compared with TPEN: prostate cancer cells
Protocol: PC-3 cells were cultured in medium alone, or in the presence of PPIX (50 μM) for 4 hours, or 5-Ala (250 μM) for 24 hours. Expression of XIAP and GAPDH (control) was detected by immunoblotting with an antibody to XIAP or GADPH, respectively.
Cell Lines and Culture Conditions. A PC-3 castration-resistant prostate cancer cell line was obtained from the American Type and Culture Collection (Rockville, Md.). PC-3 cells were maintained in complete cell culture medium (RPMI 1640 medium (Bio-Whittaker, Walkersville, Md.) supplemented with 10% FCS (Hyclone, Logan, Utah), gentamicin (50 mg/L), sodium pyruvate (1 mM) and non-essential amino acids (0.1 mM)).
Analysis of XIAP Depletion in PC-3 Cell Line Following Administration of Heterocyclic Zn Chelators. PC-3 cells were cultured under three distinct conditions; medium alone, with administration of TPEN (8 μM) as a positive control for 2 hours, and with administration of an individual Zn chelators (MR) (50 μM) for 4 hours.
Western blot analysis was performed to assess for level of XIAP depletion. Whole cell lysates were prepared as described previously (Kolenko V et al. (1999) J. Immunol. 163: 590-8). Protein concentrations were measured with BCA protein assay reagents (Pierce, Rockford, Ill.). Equivalent amounts of proteins (20 μg) were mixed with an equal volume of 2× Laemmli sample buffer, boiled and resolved by electrophoresis in 10% sodium dodecyl sulfate-polyacrylamide gels (SDS-PAGE). The proteins were transferred from the gel to a nitrocellulose membrane using an electroblotting apparatus (Bio-Rad) (15 V, 3 mA/cm2 for 24 minutes).
Membranes were then incubated in a blocking solution containing 5% nonfat dry milk overnight to inhibit nonspecific binding. The membranes were then incubated with specific antibody (1-3 μg/ml) for 2 hours. After washing in TRIS/0.1% Tween 20 for 30 minutes, membranes were incubated for another 30 minutes with horseradish peroxidase-conjugated secondary antibody. The membranes were then washed and developed with enhanced chemiluminescence (ECL Western Blotting Kit, Amersham, Arlington Heights, Ill.).

[7] = test system: PC-3 tumors; test: PC-3 tumor growth in ectopic xenograft mouse model of prostate cancer; assay type: in vivo; details: 5-Ala ip 10 mg/mouse daily combined with HGS-ETR1 iv 0.25 mg/mouse once a week, PC-3 tumors in male C.B17/Icr-scid mice, FIG. 2
Protocol: PC-3 tumors were established in male C.B17/Icr-scid mice. When tumor volumes reach approximately 200 mm^3, the animals were grouped (n=5 for each group) and treated with saline (control), an ip injection of 5-Ala (10 mg/mouse, daily) and/or an iv injection of HGS-ETR1 (0.25 mg/mouse once a week).

[8] = test system: PC-3 cells; test: TRAIL-mediated apoptosis in PC-3 cells (DNA fragmentation assay); assay type: cell-based, human; details: chelator combined with TRAIL, FIG. 4
[9] = Intravenous tolerability in C.B17/Icr-scid mice; assay type: in vivo; details: two 6 week-old male C.B17/Icr-scid mice, iv 100 μl at 15 mM
Protocol: Animal Studies. Two 6 week-old male C.B17/Icr-scid mice were injected intravenously with 100 μl of MR13 chelator at final concentration of 15 mM.

| SMILES | XIAP depletion (Western blot) ([6]; PC-3 cells) | promotion of TRAIL-mediated cell death / apoptotic response [8] | depletion of XIAP compared with TPEN [6] | also measured |
| --- | --- | --- | --- | --- |
| c1ccc(CN(CCN(Cc2ccccn2)Cc2ccccn2)Cc2ccccn2)nc1 [TPEN, N,N,N′,N′-tetrakis(2-pyridylmethyl)-ethylenediamine] | – | – | – | effect on expression levels of other zinc-containing IAP family members [1]: no effect; XIAP mRNA level [2]: not reduced; XIAP protein levels in vivo [3]: rapid decrease of XIAP protein levels; potentiation of the action of HGS-ETR1 (mapatumumab) and docetaxel [4]: markedly potentiated; depletion of XIAP [5]: selective and rapid depletion; also recorded: rapidly depletes XIAP |
| NCC(=O)CCC(=O)O [5-Ala, 5-aminolevulinic acid, reference compound] | – | – | – | XIAP expression (immunoblot) ([6]; PC-3 cells, 5-Ala 250 μM, 24 hours, FIG. 1): reduces XIAP levels; also recorded: significantly reduced XIAP expression; tumor growth / antitumor effect [7]: augments HGS-ETR1 the antitumor effect; tumor growth / antitumor effect ([7]; listed as 5-ALA): completely arrested tumor growth |
| O=S(=O)(Nc1ccccc1-c1nc2ccccc2[nH]1)c1c(F)cccc1F [MR96] | failed to induce XIAP depletion | did not succeeded in producing an apoptotic response | – | – |
| O=S(=O)(Nc1ccccc1-c1nc2ccccc2[nH]1)c1ccc(F)cc1 [MR66] | failed to induce XIAP depletion | did not succeeded in producing an apoptotic response | – | – |
| O=S(=O)(Nc1cccc2cccnc12)c1ccc(F)c(Cl)c1 [MR13] | completely depleted XIAP | promoted TRAIL-mediated cell death | at least as effectively as TPEN | tolerability of intravenous administration [9]: well tolerated |
| N#Cc1ccc(S(=O)(=O)Nc2cccc3cccnc23)cc1 [MR44] | completely depleted XIAP | promoted TRAIL-mediated cell death | at least as effectively as TPEN | – |
